According to US20070014748A1, “Urea compounds that promote desquamation” (L'OREAL, priority 2005, published 2007):

Columns and labels:
corneodesmosin = assay: Degradation of corneodesmosin in a controlled environment chamber (varnished strippings, immunoblot); format: biochemical; settings: for percentages of residual corneodesmosin relative to the control: 5% active agent in base Arlacel/Myrj, 37° C., 70% relative humidity, 5 days, mean of 2 experiments, the lower the percentage, the higher the degradation
Excerpt: (§1) Three properties were therefore studied: • The prodesquamating power, by the test of degradation of corneodesmosin in a controlled environment chamber with formulated products containing 5% active agent. […] P According to one of the aspects of the invention, the said compound of formula (I) has a corneodesmosin degrading effect which it stimulates.
The molecules are formulated in a neutral base Arlacel/Myrj. The products are in contact with varnished strippings under defined temperature, humidity and incubation time conditions. The corneodesmosin is assayed by immunodetection after incubation. It is studied on an immunoblot after electrophoretic separation and transfer onto a membrane. After specific labelling with the antibody G3619, it is visualized by chemiluminescence.
The Hydrovance® product, which is a mixture comprising N-(2-hydroxyethyl)urea marketed by the company National Starch, is compared with urea and with a control.
Rectangles of 3×3.5 cm^2 are cut out in varnished strippings made on the bottom of dry skin legs. They are treated with 42 mg of product (4 mg/cm^2) each. Controls and assays are carried out in parallel. The assays are incubated at 37° C. and 70% relative humidity for 5 days. The controls are kept for 5 days at −20° C. For each of the samples, acetone powders are made and weighed. The proteins are extracted with 100 μl of complete Laemmli buffer. They are assayed according to the Bradford method. The protein level of each sample is adjusted and will allow direct comparison of the various samples.
The proteins are separated by SDS-Page electrophoresis on 12% acrylamide gel. After transferring the proteins onto a PVDF membrane, the immunodetection is carried out with the anti-corneodesmosin antibody G3619 (Guy Serre) at 1/12 500 according to a conventional Western-blot technique. The visualization is performed by chemiluminescence. The bands detected by fluorSmax (Biorad) are quantified with the software quantity-one. […]
The results are expressed as percentages of residual corneodesmosin relative to the control −80° C. […]

[1] = tested on: keratins and proteins of the SC; assay: "Keratolytic" potential: solubilization of keratins and proteins of the stratum corneum (electrophoresis gel); settings: 2M in water +2% CHAPS; room temperature; 12.5% acrylamide gel, silver nitrate staining
Procedure: as §1
Urea is known for its denaturing activity on keratolytic proteins.
30 mg of acetone powders of stratum corneum of the bottom of the legs of volunteers are prepared and brought into contact with 3 ml of water +2% CHAPS (zwitterionic detergent) for 10 min at room temperature. The mixture is then ground in a potter device and centrifuged for 10 min at 15 000 g. The supernatant is removed. This method makes it possible to remove the very soluble keratins and proteins which would interfere with the interpretation of the results. The pellet is taken up in 300 μl of water+CHAPS and 20 μl are distributed into 10 Eppendorf tubes.
Each molecule to be studied is prepared at 2M in water +2% CHAPS.
200 μl of solution are mixed with 20 μl of extract of acetone powders. The assays are carried out in duplicate. A control with no reagent is performed in parallel. The reaction mixtures are incubated for 10 min at room temperature, they are ground in a potter device and then incubated for 50 min at room temperature. They are centrifuged for 10 min at 15 000 g. […]

[2] = tested on: acid proteases of the SC (stratum corneum); assay: Activating potential on acid proteases of the stratum corneum (Enzchek Bodipyfl-casein fluorimetric assay); format: biochemical; settings: for acid protease activity compared with the control / duration of the activating effect on acid proteases: 1 and 2 M; for acid protease activity compared with the control: 0.1M acetic buffer pH 5.0, SC enzymatic extract; for duration of the activating effect on acid proteases: readings up to 24 h
Procedure: as §1
The property of activating certain acid proteases of the SC (stratum corneum) is evaluated. The measurement of this activity is carried out by fluorimetric assay with the aid of the Enzchek kit (Molecular Probes). This protocol uses a Bodipyfl-casein substrate which, when hydrolysed, releases fluorescence. The fluorescence released is directly proportional to the protease activity. It is read directly on a 96-well plate in a spectrofluorimeter at 750V at an excitation of 485 nm and an emission of 535 nm.
The results obtained with N-(2-hydroxyethyl)urea (compound according to the invention) are compared with those for urea.
The molecules are prepared at 0, 1, 2 and 4 M in 0.1M acetic buffer; pH 5.0. An enzymatic extract is prepared from acetone powders. 2 ml of PBS buffer +0.1% Triton X100 are brought into contact for 1 h in crushed ice with 200 mg of stratum corneum acetone powders. The mixture is then ground in a potter device and then centrifuged for 10 min at 15 000 g at 4° C. The supernatant is collected. The Enzchek substrate diluted 1/200 is incorporated into each solution containing the molecules. The assays are repeated three times.
The reaction mixture is prepared directly in a white plate. 10 μl of enzymatic extract are added to 200 μl of solution containing the substrate at 0, 1, 2 or 4M. The readings are carried out at t0, 1 2 h, t 16 h and t 24 h.

Row | Structure (SMILES) | percentages of residual corneodesmosin relative to the control (corneodesmosin) [%] | prodesquamating effect (corneodesmosin degradation) compared with urea (corneodesmosin; 5% in base Arlacel/Myrj) | solubilization of SC proteins, gel band pattern compared with urea [1] | acid protease activity compared with the control [2] | duration of the activating effect on acid proteases [2] | acid protease activity ([2]; 4M, regardless of the time studied) | degradation of a protein substrate by the acid proteases of the SC ([2]; concentration of 0.5 to 2M, in particular 1M)
1 | NC(=O)NCCO [Hydrovance, N-(2-hydroxyethyl)urea] | 23 | slightly higher effect than urea | distinguishable from urea by the appearance of low MW bands | large increase in activity | long-lasting | marked decrease in activity | durably stimulates
2 | NC(N)=O [urea] | 30 | – | – | slightly activating effect | up to two hours after the start of incubation | – | –
